Source: US11833204B2, “Visible light-activatable nanoparticles for cancer immunotherapy and use thereof” (KOREA INSTITUTE OF SCIENCE AND TECHNOLOGY, priority 2021, dated 2023)

Tests used:
cathepsin B = cathepsin B (Homo sapiens, UniProt P07858); assay: Cleavage of LT-NPs by cathepsin B (RP-HPLC, fluorescence, TEM); type: biochemical
Protocol: The self-assembled nanoparticles (LT-NPs) prepared in Example 1, doxorubicin (DOX), and verteporfin (VPF) were used as samples. 1 mg of each sample was mixed with physiological saline (1 mL). […] The self-assembled nanoparticles (LT-NPs) were mixed with cathepsin B (Cat-B) protease (50 μg/mL). The mixture was allowed to react for 24 h.
In this example, the activation of the self-assembled nanoparticles (LT-NPs) by cathepsin B (Cat-B) was determined. To this end, an experimental sample and a comparative sample were prepared and allowed to react in an incubator at 37° C. Specific cleavages by cathepsin B were evaluated at reaction times of 0, 9, and 24 h by reversed phase high-performance liquid chromatography (RT-HPLC).
Experimental sample (Cat-B): The self-assembled nanoparticles (LT-NPs) (10 μM) prepared in Example 1 were mixed with a 2-(N-morpholine)-ethanesulphonic acid (MES) buffer (200 μL) containing cathepsin B (10 μg).
Comparative sample (Cat-B+inhibitor): The self-assembled nanoparticles (LT-NPs) (10 μM) prepared in Example 1 were mixed with a 2-(N-morpholine)-ethanesulphonic acid (MES) buffer (200 μL) containing cathepsin B (10 μg) and a cathepsin B inhibitor (Z-FA-FMK, 50 μM).

CT26 cells = assay: Immunogenic cell death: extracellular ATP release; type: cell-based; conditions: CT26, 5 μM, 24 h, +L/−L
Protocol: First, CT26 cells were plated in 35 mm cell culture dishes at a density of 1×10^5 cells/dish and doxorubicin (DOX) (5 μM), verteporfin (VPF) (5 μM) or the self-assembled nanoparticles (LT-NPs) (5 μM) were added to each dish. After 24-h culture, one half was exposed by irradiation with visible light using a 671 nm laser at 40 mW for 250 sec (+L) and the other half was not irradiated with visible light for comparison (−L). The immunogenic cell death of the self-assembled nanoparticles (LT-NPs) was evaluated using the cells and the cell culture media.
ATP was analyzed using a commercially available ATP assay kit (Beyotime Biotechnology) according to the manufacturer's protocol.

C=CC1=C(C)/C2=C/C3=NC(Cc4[nH]c(c(CCCCC(=O)OC)c4C)CC4N=C(CC1N2)C(C)=C4CCC(=O)N[C@H](Cc1ccccc1)C(=O)N[C@@H](CCCNC(=N)N)C(=O)N[C@H](CCCNC(=N)N)C(=O)NCC(=O)NC1C[C@@H](OC2C[C@](O)(C(=O)CO)Cc4c(O)c5c(c(O)c42)C(=O)c2c(OC)cccc2C5=O)O[C@@H](C)[C@H]1O)[C@@]1(C)C3=CC=C(C(=O)OC)[C@@H]1C(=O)OC (stereo partly drawn) [LT-NPs, VPF-FRRG(SEQ ID NO: 1)-DOX]
cleavage by cathepsin B (cathepsin B; 10 μM, cathepsin B 10 μg in MES buffer, 37° C., RP-HPLC and fluorescence): cleaved by cathepsin B to release doxorubicin and the photosensitizer
morphology after reaction with cathepsin B (TEM) (cathepsin B; Cat-B 50 μg/mL, 24 h): degraded by cathepsin B
ATP release (CT26 cells): significantly higher
